From patent US20250213555A1, “SUBSTITUTED TETRAHYDROFURAN ANALOGS AS MODULATORS OF SODIUM CHANNELS” (VERTEX PHARMACEUTICALS INCORPORATED, priority 2021, published 2025)

biological target: human Nav 1.8 (Homo sapiens, UniProt Q9Y5Y9); assay: E-VIPR assay detecting and measuring Nav inhibition properties; assay type: cell-based; settings: HEK cells expressing a truncated form of human Nav 1.8; compound numbers without "*" (not marked as run in the presence of human serum); read-out: measured IC50 value in the E-VIPR Assay
Sequence (Q9Y5Y9 126-399 limits assumed): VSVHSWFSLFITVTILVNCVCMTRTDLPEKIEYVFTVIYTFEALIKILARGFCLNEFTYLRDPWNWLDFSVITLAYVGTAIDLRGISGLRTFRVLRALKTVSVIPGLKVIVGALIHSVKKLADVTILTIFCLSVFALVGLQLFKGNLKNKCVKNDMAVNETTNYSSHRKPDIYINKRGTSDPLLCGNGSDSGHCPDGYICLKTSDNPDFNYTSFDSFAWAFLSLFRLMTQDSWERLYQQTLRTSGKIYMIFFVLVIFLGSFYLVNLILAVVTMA
Sequence (Q9Y5Y9 660-890 limits assumed): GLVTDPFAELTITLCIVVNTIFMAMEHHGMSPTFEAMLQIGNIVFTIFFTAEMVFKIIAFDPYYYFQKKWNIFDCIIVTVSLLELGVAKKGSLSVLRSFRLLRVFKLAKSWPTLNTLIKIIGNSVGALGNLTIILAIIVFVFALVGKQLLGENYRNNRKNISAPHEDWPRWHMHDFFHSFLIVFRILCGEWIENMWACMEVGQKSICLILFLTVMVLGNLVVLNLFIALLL
Sequence (Q9Y5Y9 1148-1722 limits assumed): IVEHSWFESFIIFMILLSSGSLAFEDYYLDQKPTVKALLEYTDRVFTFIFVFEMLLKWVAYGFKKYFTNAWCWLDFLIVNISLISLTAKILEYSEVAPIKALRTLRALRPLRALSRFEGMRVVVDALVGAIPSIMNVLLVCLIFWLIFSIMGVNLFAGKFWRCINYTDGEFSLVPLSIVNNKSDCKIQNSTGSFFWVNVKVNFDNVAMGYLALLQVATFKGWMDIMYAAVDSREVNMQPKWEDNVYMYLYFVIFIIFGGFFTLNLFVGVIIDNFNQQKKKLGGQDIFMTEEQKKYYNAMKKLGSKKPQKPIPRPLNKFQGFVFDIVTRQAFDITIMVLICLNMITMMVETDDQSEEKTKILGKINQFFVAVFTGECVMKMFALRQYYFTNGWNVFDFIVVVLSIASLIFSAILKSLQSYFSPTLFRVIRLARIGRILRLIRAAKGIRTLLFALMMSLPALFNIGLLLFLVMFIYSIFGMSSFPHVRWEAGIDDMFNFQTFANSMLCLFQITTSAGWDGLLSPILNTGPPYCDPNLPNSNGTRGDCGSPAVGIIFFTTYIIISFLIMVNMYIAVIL
From the text: E-VIPR Assay Detecting and Measuring Nav Inhibition Properties
Sodium ion channels are voltage-dependent proteins that can be activated by inducing membrane voltage changes by applying electric fields. The electrical stimulation instrument and methods of use, referred to as E-VIPR, are described in International Publication No. WO 2002/008748 A3 and C.-J. Huang et al. Characterization of voltage-gated sodium channel blockers by electrical stimulation and fluorescence detection of membrane potential, 24 Nature Biotech. 439-46 (2006), both of which are incorporated by reference in their entirety. The instrument comprises a microtiter plate handler, an optical system for exciting the coumarin dye while simultaneously recording the coumarin and oxonol emissions, a waveform generator, a current- or voltage-controlled amplifier, and parallel electrode pairs that are inserted into assay plate wells. Under integrated computer control, this instrument passes user-programmed electrical stimulus protocols to cells within the wells of the microtiter plate.
16-20 hours prior to running the assay on E-VIPR, HEK cells expressing a truncated form of human Nav 1.8 with full channel activity were seeded into microtiter 384-well plates, pre-coated with matrigel, at a density of 25,000 cells per well. 2.5-5% KIR2.1 Bacmam virus was added to the final cell suspension before seeding into cell plates. HEK cells were grown in Dulbecco's Modified Eagle's Medium (DMEM) supplemented with 10% FBS (Fetal Bovine Serum, qualified; Sigma #F4135), 1% NEAA (Non-Essential Amino Acids, Gibco #11140), 1% HEPES (Gibco #15630), 1% Pen-Strep (Penicillin-Streptomycin; Gibco #15140) and 5 μg/ml Blasticidin (Gibco #R^210-01). Cells were expanded in vented cap cell culture flasks, with 90-95% humidity and 5% CO2.
100 mg/mL Pluronic F-127 (Sigma #P2443), in dry DMSO
Compound Plates: Corning 384-well Polypropylene Round Bottom #3656
Cell Plates: 384-well tissue culture treated plates (Greiner #781091-2B)
2.5-5% KIR 2.1 Bacmam virus (produced in-house), prepared as described in Section 3.3 of J. A. Fornwald et al., Gene Expression in Mammalian Cells Using BacMam, a Modified Baculovirus System, 1350 Methods in Molecular Biology 95-116 (2016), the entire contents of which are incorporated by reference. The concentration used can be dependent on viral titer of each batch.
5 mM DiSBAC6(3), a voltage sensitive oxonol acceptor (CAS number 169211-44-3; 5-[3-(1,3-dihexylhexahydro-4,6-dioxo-2-thioxo-5-pyrimidinyl)-2-propen-1-ylidene]-1,3-dihexyldihydro-2-thioxo-4,6 (1H,5H)-pyrimidinedione), in dry DMSO. The preparation of DiSBAC6(3) is analogous to that of DiSBAC4(3) as described in Voltage Sensing by Fluorescence Resonance Energy Transfer in Single Cells, Gonzalez, J. E. and Tsien, R. Y. (1995) Biophys. J. 69, 1272-1280.
5 mM CC2-DMPE, a commercially available membrane-bound coumarin phospholipid FRET donor (ThermoFisher Scientific catalog number K1017, CAS number 393782-57-5; tetradecanoic acid, 1,1′-[(1R)-1-[8-(6-chloro-7-hydroxy-2-oxo-2H-1-benzopyran-3-yl)-3-hydroxy-3-oxido-8-oxo-2,4-dioxa-7-aza-3-phosphaoct-1-yl]-1,2-ethanediyl] ester) was prepared in dry DMSO. See also, Improved indicators of cell membrane potential that use fluorescence resonance energy transfer, Gonzalez, J. E. and Tsien, R. Y. (1997) Chem. Biol. 4, 269-277.
Voltage Assay Background Suppression Compound (VABSC-1) is prepared in H2O (89-363 mM, range used to maintain solubility)
Human Serum (HS, Millipore #S1P1-01KL, or Sigma SLBR5469V and SLBR5470V as a 50%/50% mixture, for 25% assay final concentration)
• Sodium Chloride 160 mM (9.35 g/L), Potassium Chloride, 4.5 mM (0.335 g/L), Glucose 10 mM (1.8 g/L), Magnesium Chloride (Anhydrous) 1 mM (0.095 g/L), Calcium Chloride 2 mM (0.222 g/L), HEPES 10 mM (2.38 g/L) in water. […]

| SMILES | IC50 [µM] |
| --- | --- |
| COCCOc1c([C@@H]2[C@@H](C(=O)Nc3ccnc(C(N)=O)c3)O[C@](C)(C(F)(F)F)[C@@H]2C)ccc(F)c1F (stereo in doubt) [Compound 1, rel-4-((2S,3R,4R,5S)-3-(3,4-difluoro-2-(2-methoxyethoxy)phenyl)-4,5-dimethyl-5-(trifluoromethyl)tetrahydrofuran-2-carboxamido) picolinamide] | 0.1 to 1 |
| C[C@H]1[C@@H](c2ccc(F)c(F)c2OC[C@H]2C[C@](O)(C(F)(F)F)C2)[C@H](C(=O)Nc2ccnc(C(N)=O)c2)O[C@@]1(C)C(F)(F)F [Compound 7, 4-((2R,3S,4S,5R)-3-(3,4-difluoro-2-(((1s,3R)-3-hydroxy-3-(trifluoromethyl)cyclobutyl)methoxy)phenyl)-4,5-dimethyl-5-(trifluoromethyl)tetrahydrofuran-2-carboxamido)picolinamide] | 0.01 to 0.1 |
| COc1c([C@H]2[C@H](C(=O)Nc3cccc(C(=O)N4CCN(C)CC4)n3)O[C@@](C)(C(F)(F)F)[C@H]2C)ccc(F)c1F [Compound 10, (2R,3S,4S,5R)-3-(3,4-difluoro-2-methoxyphenyl)-4,5-dimethyl-N-(6-(4-methylpiperazine-1-carbonyl)pyridin-2-yl)-5-(trifluoromethyl)tetrahydrofuran-2-carboxamide] | 0.1 to 1 |
| COc1c([C@H]2[C@H](C(=O)Nc3ccnc(C(=O)N4CCN(C)CC4)n3)O[C@@](C)(C(F)(F)F)[C@H]2C)ccc(F)c1F [Compound 11, (2R,3S,4S,5R)-3-(3,4-difluoro-2-methoxyphenyl)-4,5-dimethyl-N-(2-(4-methylpiperazine-1-carbonyl)pyrimidin-4-yl)-5-(trifluoromethyl)tetrahydrofuran-2-carboxamide] | 0.01 to 0.1 |
| COc1c([C@H]2[C@H](C(=O)Nc3cc(C(=O)N4CCN(C)CC4)ncc3C)O[C@@](C)(C(F)(F)F)[C@H]2C)ccc(F)c1F [Compound 12, (2R,3S,4S,5R)-3-(3,4-difluoro-2-methoxyphenyl)-4,5-dimethyl-N-(5-methyl-2-(4-methylpiperazine-1-carbonyl)pyridin-4-yl)-5-(trifluoromethyl)tetrahydrofuran-2-carboxamide] | 0.01 to 0.1 |
| COc1c([C@H]2[C@H](C(=O)Nc3nccc(C(=O)N4CCN(C)CC4)n3)O[C@@](C)(C(F)(F)F)[C@H]2C)ccc(F)c1F [Compound 13, (2R,3S,4S,5R)-3-(3,4-difluoro-2-methoxyphenyl)-4,5-dimethyl-N-(4-(4-methylpiperazine-1-carbonyl)pyrimidin-2-yl)-5-(trifluoromethyl)tetrahydrofuran-2-carboxamide] | 0.1 to 1 |
| COc1c([C@H]2[C@H](C(=O)Nc3cc(C(=O)N4CCN(C)CC4)ccn3)O[C@@](C)(C(F)(F)F)[C@H]2C)ccc(F)c1F [Compound 14, (2R,3S,4S,5R)-3-(3,4-difluoro-2-methoxyphenyl)-4,5-dimethyl-N-(4-(4-methylpiperazine-1-carbonyl)pyridin-2-yl)-5-(trifluoromethyl)tetrahydrofuran-2-carboxamide] | 0.1 to 1 |

More lines, now with the values ahead:

| IC50 [µM] | SMILES |
| --- | --- |
| < 0.01 | COc1c([C@H]2[C@H](C(=O)Nc3ccnc(C(=O)N4CCC(N(C)C)C4)c3)O[C@@](C)(C(F)(F)F)[C@H]2C)ccc(F)c1F (single isomer, unassigned) [Compound 264, rel-(2R*,3S*,4S*,5R*)-3-(3,4-difluoro-2-methoxyphenyl)-N-(2-(3-(dimethylamino)pyrrolidine-1-carbonyl)pyridin-4-yl)-4,5-dimethyl-5-(trifluoromethyl)tetrahydrofuran-2-carboxamide] |
| < 0.01 | COc1c(C2C(C(=O)Nc3ccnc(C(=O)N4CCC(N(C)C)C4)c3)OC(C)(C(F)(F)F)C2C)ccc(F)c1F (single isomer, unassigned) [Compound 265, rel-(2R*,3S,*4S*,5R*)-3-(3,4-difluoro-2-methoxyphenyl)-N-(2-(3-(dimethylamino)pyrrolidine-1-carbonyl)pyridin-4-yl)-4,5-dimethyl-5-(trifluoromethyl)tetrahydrofuran-2-carboxamide] |
| < 0.01 | COc1c([C@H]2[C@H](C(=O)Nc3ccnc(C(=O)N4CCN(C)[C@H]5C[C@H]54)c3)O[C@@](C)(C(F)(F)F)[C@H]2C)ccc(F)c1F (single isomer, unassigned) [Compound 294, rel-(2R*,3S*,4S*,5R*)-3-(3,4-difluoro-2-methoxyphenyl)-4,5-dimethyl-N-(2-((1R,6S)-5-methyl-2,5-diazabicyclo[4.1.0]heptane-2-carbonyl)pyridin-4-yl)-5-(trifluoromethyl)tetrahydrofuran-2-carboxamide] |
| < 0.01 | COc1c([C@H]2[C@H](C(=O)Nc3ccnc(C(=O)N4CCN(C)[C@@H]5C[C@@H]54)c3)O[C@@](C)(C(F)(F)F)[C@H]2C)ccc(F)c1F (single isomer, unassigned) [Compound 295, rel-(2R*,3S*,4S*,5R*)-3-(3,4-difluoro-2-methoxyphenyl)-4,5-dimethyl-N-(2-((1S,6R)-5-methyl-2,5-diazabicyclo[4.1.0]heptane-2-carbonyl)pyridin-4-yl)-5-(trifluoromethyl)tetrahydrofuran-2-carboxamide] |
| 0.01 to 0.1 | C[C@]1(C(F)(F)F)C[C@@H](c2ccc(OC(F)(F)F)cc2Cl)[C@H](C(=O)Nc2ccnc(C(N)=O)c2)O1 (stereo in doubt) [Compound 151, rel-4-((2R,3S,5R)-3-(2-chloro-4-(trifluoromethoxy)phenyl)-5-methyl-5-(trifluoromethyl)tetrahydrofuran-2-carboxamido) picolinamide] |
| < 0.01 | C[C@H]1[C@@H](c2ccc(F)c(F)c2OCCO)[C@H](C(=O)Nc2ccnc(C(N)=O)c2)O[C@@]1(C)C(F)(F)F [Compound 5, 4-((2R,3S,4S,5R)-3-(3,4-difluoro-2-(2-hydroxyethoxy)phenyl)-4,5-dimethyl-5-(trifluoromethyl)tetrahydrofuran-2-carboxamido) picolinamide] |
| < 0.01 | C[C@H]1[C@@H](c2ccc(F)c(F)c2OCc2cnco2)[C@H](C(=O)Nc2ccnc(C(N)=O)c2)O[C@@]1(C)C(F)(F)F [Compound 6] |
| < 0.01 | COc1c([C@H]2[C@H](C(=O)Nc3ccnc(C(=O)N4CCN(C)CC4)c3)O[C@@](C)(C(F)(F)F)[C@H]2C)ccc(F)c1F [Compound 8, (2R,3S,4S,5R)-3-(3,4-difluoro-2-methoxy-phenyl)-4,5-dimethyl-N-[2-(4-methylpiperazine-1-carbonyl)-4-pyridyl]-5-(trifluoromethyl)tetrahydrofuran-2-carboxamide] |
| < 0.01 | COc1c([C@H]2[C@H](C(=O)Nc3cc(C(=O)N4CCN(C)CC4)ncc3F)O[C@@](C)(C(F)(F)F)[C@H]2C)ccc(F)c1F [Compound 9, (2R,3S,4S,5R)-3-(3,4-difluoro-2-methoxyphenyl)-N-(5-fluoro-2-(4-methylpiperazine-1-carbonyl)pyridin-4-yl)-4,5-dimethyl-5-(trifluoromethyl)tetrahydrofuran-2-carboxamide] |
| < 0.01 | COc1c([C@H]2[C@H](C(=O)Nc3cc(C(=O)N4CCNCC4)ncc3C)O[C@@](C)(C(F)(F)F)[C@H]2C)ccc(F)c1F [Compound 15, (2R,3S,4S,5R)-3-(3,4-difluoro-2-methoxy-phenyl)-4,5-dimethyl-N-[5-methyl-2-(piperazine-1-carbonyl)-4-pyridyl]-5-(trifluoromethyl)tetrahydrofuran-2-carboxamide] |
